The text below walks through data of patent US10035797B2, “Fused amino pyridine as HSP90 inhibitors” (Curis, Inc., priority 2007, dated 2018).

The target in this experiment is HSP90 (Homo sapiens (Human), UniProt P07900). The experiment can be described thus: HSP90 competition binding (fluorescence polarization) assay. The conditions noted are these: FITC labeled GM, 24 hours at 4° C. The source says: (b) HSP90 Competition Binding (Fluorescence Polarization) Assay.
A fluorescein isothiocyanate (FITC) labeled GM was purchase from InvivoGen (ant-fgl-1). The interaction between HSP90 and labeled GM forms the basis for the fluorescence polarization assay. A free and fast-tumbling FITC labeled GM emits random light with respect to the plane of polarization plane of excited light, resulting in a lower polarization degree (mP) value. When GM is bound to HSP90, the complex tumble slower and the emitted light is polarized, resulting in a higher mP value. […] The assay buffer contained 20 mM HEPES (pH 7.3), 50 mM KCl, 1 mM DTT, 50 mM MgCl2, 20 mM Na2MoO4, 0.01% NP40 with 0.1 mg/ml bovine gamma-globulin.
A general note: Fluorescence polarisation rises when a labelled molecule tumbles more slowly, as on binding a larger partner.

By IC50 is commonly meant the midpoint of a concentration-inhibition curve. Compound `CC(C)(C)CNCCCn1c(Sc2cc3c(cc2I)OCO3)nc2c(N)nccc21` [Compound 56, 2-(6-iodobenzo[d][1,3]dioxol-5-ylthio)-1-(3-(neopentylamino)propyl)-1H-imidazo[4,5-c]pyridin-4-amine] displayed a half-inhibitory concentration (IC50) of 100 to 1000 nM.
